We go through 32 compounds from US9023852B2, “1, 2, 4-thiadiazol-5-ylpiperazine derivatives useful in the treatment of neurodegenerative diseases” (Remynd NV, priority 2011, dated 2015).

Each structure is given as a SMILES string.

As a reminder, the EC50 is the concentration at which the effect is half-maximal.

The assay deals with M17—3TAU(P301L) cells. Nature of the assay: Neuroblastoma tauopathy model: inhibition of TAU-induced cytotoxicity (LDH). It is filed as cell-based. Particulars: Homo sapiens, 168 h; inhibition of TAU-induced toxicity (LDH), 7 days differentiation with retinoic acid. The text has this: A TAU expression plasmid was constructed by sub-cloning the cDNA encoding for human TAU-P301L protein, wherein proline at position 301 is substituted by a leucine residue, into mammalian expression vector pcDNA3.1 resulting in the plasmid pcDNA3.1-TAUP301L. Plasmids pcDNA3.1 and pcDNA3.1-TAU P301L were transfected into human neuroblastoma cells (BE-M17; ATCC No. CRL-2267™) using lipofectamine reagent and subsequently, independent clonal cell lines with the plasmids stably integrated into the genome were selected by antibiotic resistance selection (Geneticin (G418)), resulting in cell lines M17.pcDNA3 and M17—3TAUP301L. Expression of the TAUP301L gene in the M17—3TAUP301L cells was confirmed by Western blot analysis.
Differentiation of the cells with RA leads to phosphorylation and subsequent aggregation of TAU, inducing a tauopathy in these cells. Cytotoxicity of cells was measured by quantification of lactate dehydrogenase (LDH) levels. In dead cells LDH is leaked out of the cells into the medium due to a loss of plasma-membrane integrity.
Briefly, 3 days preceding the experiment pre-cultures of M17.pcDNA3 and M17—3TAU(P301L) cells were prepared, starting from a stock culture, at a density of 50.000-100.000 cells/cm2 in detection medium (Optimem Reduced Serum without phenol red (Gibco, Cat. 31985-047) supplemented with 1% fetal calf serum (FCS), 1 mM sodium pyruvate, 1× non-essential amino acids (NEAA), 500 μg/ml G418 and 0.5× antibiotic/antimycotic (ABAM)). At the day of the experiment these precultures were diluted to ˜0, 1.106 cells/ml in detection medium without FCS and 60 μL of this suspension is dispensed per well into a 96-well microtiter plate. After 3 hours of incubation at 37° C./5% CO2 an equal volume of detection medium containing 2.5 μM RA was added and subsequently incubated for 7 days at 37° C./5% CO2. After 7 days, LDH activity was determined using the Promega Cytotox 96 Non-Radioactive cytotoxicity assay (Cat. G1780), according the manufacturer's instructions. Cytotoxicity is measured as the ratio of LDH increase in the supernatant divided by the LDH increase in the total cell suspension (sum of the LDH measured in cells and supernatant).
The M17—3TAU(P301L) cell line makes it possible to assess the ability of novel compounds to inhibit TAU-induced cytotoxicity. […] Compounds were tested for their ability to hamper TAU-induced toxicity at different concentrations, ranging from low non-effective concentrations to high potent concentrations. Afterwards, the dose-dependent inhibition curve was used to calculate their EC50 (Table 1).
Consider `COc1cc(CCN2CCN(c3nc(-c4ccc(C#N)cc4)ns3)CC2)ccn1` [Example 116, 4-(5-{4-[2-(2-Methoxy-pyridin-4-yl)-ethyl]-piperazin-1-yl}-[1,2,4]thiadiazol-3-yl)-benzonitrile], for which a half-maximal effect (EC50) was put at 14.1 nM.

With `Cc1ccccc1CN1CCN(c2nc(-c3cccc(Cl)c3)ns2)CC1` [Example 92, 1-[3-(3-Chloro-phenyl)-[1,2,4]thiadiazol-5-yl]-4-(2-methyl-benzyl)-piperazine], it took 43.3 nM to reach a half-maximal effect (EC50). `C=C(CN1CCN(c2nc(-c3ccc(Cl)cc3)ns2)CC1)c1ccc(OC)cc1` [Example 59, 1-[3-(4-Chloro-phenyl)-[1,2,4]thiadiazol-5-yl]-4-[2-(4-methoxy-phenyl)-allyl]-piperazine] had a 50% effective concentration (EC50) of 75 nM. In turn, `COc1ccc(CCN2CCN(c3nc(-c4cccc(F)c4)ns3)CC2)cn1` [Example 100, 1-[3-(3-Fluoro-phenyl)-[1,2,4]thiadiazol-5-yl]-4-[2-(6-methoxy-pyridin-3-yl)-ethyl]-piperazine] came in with an EC50 of 4.3 nM. In turn, `COc1ccc(CCN2CCN(c3nc(-c4ccc(C(F)(F)F)nc4)ns3)CC2)cc1` [Example 42, 1-[2-(4-Methoxy-phenyl)-ethyl]-4-[3-(6-trifluoromethyl-pyridin-3-yl)-[1,2,4]thiadiazol-5-yl]-piperazine] registered an EC50 of 0.3 nM. Compound `COc1cccc(CCN2CCN(c3nc(-c4cccc(OC)c4)ns3)CC2)c1` [Example 15, 1-[2-(3-Methoxy-phenyl)-ethyl]-4-[3-(3-methoxy-phenyl)-[1,2,4]thiadiazol-5-yl]-piperazine] had an EC50 of 21.4 nM. In turn, `N#Cc1ccc(-c2nsc(N3CCN(CCc4ccc(F)c(F)c4)CC3)n2)cc1` [Example 138, 4-(5-{4-[2-(3,4-Difluoro-phenyl)-ethyl]piperazin-1-yl}-[1,2,4]thiadiazol-3-yl)-benzonitrile] yielded an EC50 of 18.2 nM. As to `CC(C)Oc1ccc(CCN2CCN(c3nc(-c4ccc(Cl)cc4)ns3)CC2)cc1` [Example 71, 1-[3-(4-Chloro-phenyl)-[1,2,4]thiadiazol-5-yl]-4-[2-(4-isopropoxy-phenyl)-ethyl]-piperazine], the EC50 was 429 nM.

On to `FC(F)(F)c1cccc(CCN2CCN(c3nc(-c4cncc(Cl)c4)ns3)CC2)c1` [Example 149, 1-[3-(5-Chloro-pyridin-3-yl)-[1,2,4]thiadiazol-5-yl]-4-[2-(3-trifluoromethyl-phenyl)-ethyl]-piperazine], for which the EC50 was determined as 3 nM.

In the case of `Fc1ccc(CCN2CCN(c3nc(-c4cc(Cl)ccn4)ns3)CC2)cc1` [Example 122, 1-[3-(4-Chloro-pyridin-2-yl)-[1,2,4]thiadiazol-5-yl]-4-[2-(4-fluoro-phenyl)-ethyl]-piperazine], the EC50 was 42.5 nM. `COc1cccc(CCN2CCN(c3nc(-c4ccc(Cl)cc4)ns3)CC2)c1` [Example 14, 1-[3-(4-Chloro-phenyl)-[1,2,4]thiadiazol-5-yl]-4-[2-(3-methoxy-phenyl)-ethyl]-piperazine]: the half-maximal effective concentration (EC50) turned out to be 4.8 nM. The result for `COc1cccc(CCN2CCN(c3nc(-c4ccncc4)ns3)CC2)c1` [Example 20, 1-[2-(3-Methoxy-phenyl)-ethyl]-4-(3-pyridin-4-yl-[1,2,4]thiadiazol-5-yl)-piperazine] reads 174 nM; that for `Fc1ccccc1CCN1CCN(c2nc(-c3ccc(Cl)cc3)ns2)CC1` [Example 28, 1-[3-(4-Chloro-phenyl)-[1,2,4]thiadiazol-5-yl]-4-[2-(2-fluoro-phenyl)-ethyl]-piperazine], 45.2 nM. The result for `N#Cc1cccc(-c2nsc(N3CCN(CCc4ccc(Cl)cc4)CC3)n2)c1` [Example 113, 3-(5-{4-[2-(4-Chloro-phenyl)-ethyl]piperazin-1-yl}-[1,2,4]thiadiazol-3-yl)-benzonitrile] reads 17.1 nM; that for `Fc1ccc(-c2nsc(N3CCN(CCC4CCOCC4)CC3)n2)cc1F` [Example 164, 3-(3,4-difluorophenyl)-5-(4-(2-(tetrahydro-2H-pyran-4-yl)ethyl)piperazin-1-yl)-1,2,4-thiadiazole], 3.4 nM. The result for `COc1ccc(CCN2CCN(c3nc(-c4ccccc4OC)ns3)CC2)cc1` [Example 45, 1-[2-(4-Methoxy-phenyl)-ethyl]-4-[3-(2-methoxy-phenyl)[1,2,4]thiadiazol-5-yl]-piperazine] reads 0.7 nM; that for `COc1ccc(C(=O)CN2CCN(c3nc(-c4ccc(Cl)cc4)ns3)CC2)cc1` [Example 53, 2-{4-[3-(4-Chloro-phenyl)-[1,2,4]thiadiazol-5-yl]-piperazin-1-yl}-1-(4-methoxy-phenyl)-ethanone], 12.6 nM. On to `N#Cc1ccc(-c2nsc(N3CCN(CCc4ccc(C(F)(F)F)cc4)CC3)n2)cc1` [Example 147, 4-(5-{4-[2-(4-Trifluoromethyl-phenyl)-ethyl]-piperazin-1-yl}-[1,2,4]thiadiazol-3-yl)-benzonitrile], for which a half-maximal effect (EC50) was put at 176 nM.

As for `COc1cc(CCN2CCN(c3nc(-c4ccc(C)nc4)ns3)CC2)ccn1` [Example 97, 1-[2-(2-Methoxy-pyridin-4-yl)-ethyl]-4-[3-(6-methyl-pyridin-3-yl)-[1,2,4]thiadiazol-5-yl]-piperazine], the response was half-maximal at 51.3 nM (EC50). In turn, `Clc1cccc(-c2nsc(N3CCN(CCC4CCCCC4)CC3)n2)c1` [Example 162, 3-(3-chlorophenyl)-5-(4-(2-cyclohexylethyl)piperazin-1-yl)-1,2,4-thiadiazole] returned an EC50 of 3.3 nM. Turning to `Fc1ccc(CCN2CCN(c3nc(-c4ccc(F)c(F)c4)ns3)CC2)cc1F` [Example 136, 1-[2-(3,4-Difluoro-phenyl)-ethyl]-4-[3-(3,4-difluoro-phenyl)-[1,2,4]thiadiazol-5-yl]-piperazine], the midpoint of the response, the EC50, lay at 6.2 nM. `Fc1cccc(-c2nsc(N3CCN(CCc4ccc(F)c(F)c4)CC3)n2)c1` [Example 156, 5-(4-(3,4-difluorophenethyl)piperazin-1-yl)-3-(3-fluorophenyl)-1,2,4-thiadiazole] showed an EC50 of 11.9 nM. `COc1ccc(-c2nsc(N3CCN(CCc4cccc(OC)c4)CC3)n2)cc1` [Example 49, 1-[2-(3-Methoxy-phenyl)-ethyl]-4-[3-(4-methoxy-phenyl)-[1,2,4]thiadiazol-5-yl]-piperazine]: the midpoint of the response, the EC50, lay at 49.6 nM. As to `COc1cccc(C(F)CN2CCN(c3nc(-c4ccc(Cl)cc4)ns3)CC2)c1` (centres unmarked) [Example 65, 1-[3-(4-Chloro-phenyl)-[1,2,4]thiadiazol-5-yl]-4-[2-fluoro-2-(3-methoxy-phenyl)-ethyl]-piperazine], it took 59.9 nM to reach a half-maximal effect (EC50). The result for `COc1cccc(-c2nsc(N3CCN(Cc4ccccc4C)CC3)n2)c1` [Example 13, 1-[3-(3-Methoxy-phenyl)-[1,2,4]thiadiazol-5-yl]-4-(2-methyl-benzyl)-piperazine] reads 215 nM.

As for `COc1cccc(CCN2CCN(c3nc(-c4ccc(C(F)(F)F)nc4)ns3)CC2)c1` [Example 30, 1-[2-(3-Methoxy-phenyl)-ethyl]-4-[3-(6-trifluoromethyl-pyridin-3-yl)-[1,2,4]thiadiazol-5-yl]-piperazine], the EC50 came out at 147 nM. In turn, `COc1ccc(CCN2CCN(c3nc(-c4cnccn4)ns3)CC2)cc1` [Example 76, 2-(5-{4-[2-(4-Methoxy-phenyl)-ethyl]-piperazin-1-yl}-[1,2,4]thiadiazol-3-yl)-pyrazine] registered an EC50 of 40.8 nM.

For the compound `Clc1ccc(-c2nsc(N3CCN(CCC4CCCCC4)CC3)n2)cc1` [Example 161, 3-(4-chlorophenyl)-5-(4-(2-cyclohexylethyl)piperazin-1-yl)-1,2,4-thiadiazole], the EC50 came to 39.6 nM. The result for `Cc1cc(-c2nsc(N3CCN(CCc4ccc(F)c(F)c4)CC3)n2)cnn1` [Example 175, 5-(4-(3,4-difluorophenethyl)piperazin-1-yl)-3-(6-methylpyridazin-4-yl)-1,2,4-thiadiazole] reads 13.4 nM; that for `Clc1cncc(-c2nsc(N3CCN(CCc4ccccc4)CC3)n2)c1` [Example 130, 1-[3-(5-Chloro-pyridin-3-yl)-[1,2,4]thiadiazol-5-yl]-4-phenethyl-piperazine], 0.9 nM; that for `COc1cc(CCN2CCN(c3nc(-c4cnnc(C)c4)ns3)CC2)ccn1` [Example 176, 5-(4-(2-(2-methoxypyridin-4-yl)ethyl)piperazin-1-yl)-3-(6-methylpyridazin-4-yl)-1,2,4-thiadiazole], 19.5 nM.

Compound `COc1cc(CCN2CCN(c3nc(-c4ccnc(Cl)c4)ns3)CC2)ccn1` [Example 168, 3-(2-chloropyridin-4-yl)-5-(4-(2-(2-methoxypyridin-4-yl)ethyl)piperazin-1-yl)-1,2,4-thiadiazole] had an EC50 of 1.5 nM.
